Source: patent US4083947A, “Organ visualization” (The Radiochemical Centre Limited, priority 1975, dated 1978)

Columns and labels:
[1] = Adrenal scanning/visualization in patients, comparison of 75Se compound with 19-iodocholesterol-131I; type: in vivo, humans
Method: Two patients with Cushing Syndrome were injected intravenously with 500μCi of 6β-methylselenomethyl-19-norcholest-5(10)-en-3β-ol-^75 Se formulated in normal saline stabilized with polysorbate. Repeated gamma camera scans and whole body-, urine- and blood measurements were made during a period of two weeks post injection. In one patient a maximum uptake of 17μCi in the left adrenal region was measured, the removed adrenal cortex adenoma, weight 66 g, containing 15μCi of ^75 Se.
Furthermore, the ^75 Se compound allowed scans to be taken at an earlier point of time after injection than was the case with 19-iodocholesterol-^131 I (2-3 days in contrast to 6-10 days p.i.).

[2] = cited from earlier work
[3] = cited from earlier work; remark: listed apart in the source
[4] = cited from earlier work; remark: listed apart in the source
[5] = compared with 19-iodocholesterol-131I; cited from earlier work

SMILES	time after injection at which scans could be taken ([1]; p.i.) [days]	dose giving equally good adrenal scans ([1]; per kg body weight, adrenal cortex adenomas or hyperplasia)	concentration in adrenal glands of dogs [2]	concentration in rat adrenal tissue [3]	concentration in / uptake into human adrenal glands [4]	effectiveness as adrenal scanning agent [5]
CC(C)CCC[C@@H](C)[C@H]1CC[C@H]2[C@@H]3CC=C4C[C@@H](O)CC[C@]4(C[131I])[C@H]3CC[C@]12C [19-iodocholesterol-^131 I]	6 to 10	10-20 μCi/kg	concentrate in the adrenal glands	concentrate in the adrenal glands	concentrate in the adrenal glands	
CC(C)CCC[C@@H](C)[C@H]1CC[C@H]2[C@@H]3C[C@@H](C[131I])C4=C(CC[C@H](O)C4)[C@H]3CC[C@]12C [^131 I-iodinated rearranged product, 6β-iodomethyl-19-norcholest-5(10)-en-3β-ol]						far more effective adrenal scanning agent than 19-iodocholesterol-^131 I
